Experimental data published in PubChem BioAssay (NCI).
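Cells were grown in 96-well plates and exposed to each compound for 48 hours at five concentrations; endpoints were interpolated linearly between bracketing concentrations, or set to the highest concentration if not reached. At the TGI there is no net growth.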

Key:
Assay in all cases: NCI-60 cell line screen, 48 h
786-0 renal = system: 786-0 renal
A498 renal = system: A498 renal
A549 NSCLC = system: A549 NSCLC
ACHN renal = system: ACHN renal
BT-549 breast = system: BT-549 breast
CAKI-1 renal = system: CAKI-1 renal
CCRF-CEM leukemia = system: CCRF-CEM leukemia
COLO 205 colon = system: COLO 205 colon
DU-145 prostate = system: DU-145 prostate
EKVX NSCLC = system: EKVX NSCLC
HCC-2998 colon = system: HCC-2998 colon
HCT-116 colon = system: HCT-116 colon
HCT-15 colon = system: HCT-15 colon
HL-60(TB) leukemia = system: HL-60(TB) leukemia
HOP-62 NSCLC = system: HOP-62 NSCLC
HOP-92 NSCLC = system: HOP-92 NSCLC
HS 578T breast = system: HS 578T breast
HT29 colon = system: HT29 colon
IGROV1 ovarian = system: IGROV1 ovarian
K-562 leukemia = system: K-562 leukemia
KM12 colon = system: KM12 colon
LOX IMVI melanoma = system: LOX IMVI melanoma
M14 melanoma = system: M14 melanoma
MALME-3M melanoma = system: MALME-3M melanoma
MCF7 breast = system: MCF7 breast
MDA-MB-231 breast = system: MDA-MB-231 breast
MDA-MB-435 = system: MDA-MB-435
MDA-N = system: MDA-N
MOLT-4 leukemia = system: MOLT-4 leukemia
NCI-H226 lung = system: NCI-H226 lung
NCI-H23 lung = system: NCI-H23 lung
NCI-H460 lung = system: NCI-H460 lung
NCI-H522 lung = system: NCI-H522 lung
NCI/ADR-RES ovarian = system: NCI/ADR-RES ovarian
OVCAR-3 ovarian = system: OVCAR-3 ovarian
OVCAR-4 ovarian = system: OVCAR-4 ovarian
OVCAR-5 ovarian = system: OVCAR-5 ovarian
OVCAR-8 ovarian = system: OVCAR-8 ovarian
PC-3 prostate = system: PC-3 prostate
RPMI-8226 leukemia = system: RPMI-8226 leukemia
RXF 393 renal = system: RXF 393 renal
SF-268 CNS = system: SF-268 CNS
SF-295 CNS = system: SF-295 CNS
SK-MEL-2 melanoma = system: SK-MEL-2 melanoma
SK-MEL-28 melanoma = system: SK-MEL-28 melanoma
SK-MEL-5 melanoma = system: SK-MEL-5 melanoma
SK-OV-3 ovarian = system: SK-OV-3 ovarian
SN12C renal = system: SN12C renal
SNB-19 CNS = system: SNB-19 CNS
SNB-75 CNS = system: SNB-75 CNS
SR leukemia = system: SR leukemia
SW-620 colon = system: SW-620 colon
T-47D breast = system: T-47D breast
TK-10 renal = system: TK-10 renal
U251 CNS = system: U251 CNS
UACC-257 melanoma = system: UACC-257 melanoma
UACC-62 melanoma = system: UACC-62 melanoma
UO-31 renal = system: UO-31 renal

Work on `CCCC1NC(C#N)(C#N)C(CCC)NC1(C#N)C#N` (centres undefined) yielded a TGI (786-0 renal) of over 33.5 µM, a TGI (A498 renal) of over 96.4 µM and a TGI (A549 NSCLC) of over 100 µM. It also gave a TGI (ACHN renal) of over 100 µM, a TGI (BT-549 breast) of over 27 µM and a TGI (CAKI-1 renal) of over 50.4 µM. It also gave a TGI (CCRF-CEM leukemia) of 17.8 µM, a TGI (COLO 205 colon) of 12.7 µM and a TGI (DU-145 prostate) of over 43.1 µM. The TGI (EKVX NSCLC) was over 100 µM, the TGI (HCC-2998 colon) was over 58.2 µM and the TGI (HCT-116 colon) was over 37.1 µM. It also gave a TGI (HCT-15 colon) of over 39.2 µM, a TGI (HL-60(TB) leukemia) of 0.343 µM and a TGI (HOP-62 NSCLC) of over 100 µM. For the same molecule, the TGI (HOP-92 NSCLC) was over 32.4 µM, the TGI (HS 578T breast) was 22.6 µM and the TGI (HT29 colon) was over 55.7 µM. For the same molecule, the TGI (IGROV1 ovarian) was over 62.2 µM, the TGI (K-562 leukemia) was over 77.6 µM and the TGI (KM12 colon) was over 65.9 µM. The TGI (LOX IMVI melanoma) was 31.4 µM, the TGI (M14 melanoma) was over 60.6 µM and the TGI (MALME-3M melanoma) was over 100 µM. The TGI (MCF7 breast) was over 100 µM, the TGI (MDA-MB-231 breast) was over 89.7 µM and the TGI (MDA-MB-435) was 26.8 µM. For the same molecule, the TGI (MDA-N) was over 55 µM, the TGI (MOLT-4 leukemia) was 1.99 µM and the TGI (NCI-H226 lung) was 81.1 µM. For the same molecule, the TGI (NCI-H23 lung) was over 51.3 µM, the TGI (NCI-H460 lung) was over 100 µM and the TGI (NCI-H522 lung) was 1.51 µM. It also gave a TGI (NCI/ADR-RES ovarian) of 15.2 µM, a TGI (OVCAR-3 ovarian) of 29.1 µM and a TGI (OVCAR-4 ovarian) of over 100 µM. For the same molecule, the TGI (OVCAR-5 ovarian) was over 90.1 µM, the TGI (OVCAR-8 ovarian) was 21.6 µM and the TGI (PC-3 prostate) was over 88.7 µM. The TGI (RPMI-8226 leukemia) was 0.943 µM, the TGI (RXF 393 renal) was over 66.9 µM and the TGI (SF-268 CNS) was over 48.7 µM. For the same molecule, the TGI (SF-295 CNS) was over 100 µM, the TGI (SK-MEL-2 melanoma) was over 100 µM and the TGI (SK-MEL-28 melanoma) was over 100 µM. For the same molecule, the TGI (SK-MEL-5 melanoma) was over 100 µM, the TGI (SK-OV-3 ovarian) was over 100 µM and the TGI (SN12C renal) was over 37 µM. It also gave a TGI (SNB-19 CNS) of over 100 µM, a TGI (SNB-75 CNS) of over 41.1 µM and a TGI (SR leukemia) of 1.49 µM. The TGI (SW-620 colon) was over 100 µM, the TGI (T-47D breast) was over 71.5 µM and the TGI (TK-10 renal) was over 100 µM. The TGI (U251 CNS) was over 100 µM, the TGI (UACC-257 melanoma) was over 100 µM and the TGI (UACC-62 melanoma) was over 100 µM. It also gave a TGI (UO-31 renal) of over 100 µM.

In the case of `CC1=NN(c2cccc(Cl)c2)C2(C1)C(Cl)C(=O)N2c1nc2ccccc2s1` (centres undefined), the TGI (786-0 renal) is reported as 50.6 µM, the TGI (A498 renal) is reported as over 100 µM and the TGI (A549 NSCLC) is reported as 76.2 µM. It also gave a TGI (ACHN renal) of over 100 µM, a TGI (BT-549 breast) of 85.9 µM and a TGI (CAKI-1 renal) of over 100 µM. For the same molecule, the TGI (COLO 205 colon) was 31.9 µM, the TGI (DU-145 prostate) was over 100 µM and the TGI (EKVX NSCLC) was over 100 µM. The TGI (HCC-2998 colon) was over 100 µM, the TGI (HCT-116 colon) was 40.4 µM and the TGI (HCT-15 colon) was over 100 µM. For the same molecule, the TGI (HL-60(TB) leukemia) was 53.4 µM, the TGI (HOP-62 NSCLC) was 64.8 µM and the TGI (HOP-92 NSCLC) was 75.6 µM. The TGI (HS 578T breast) was over 100 µM, the TGI (HT29 colon) was over 100 µM and the TGI (IGROV1 ovarian) was over 100 µM. It also gave a TGI (K-562 leukemia) of 48.4 µM, a TGI (KM12 colon) of over 100 µM and a TGI (LOX IMVI melanoma) of 34.9 µM. The TGI (M14 melanoma) was 64.1 µM, the TGI (MALME-3M melanoma) was over 100 µM and the TGI (MCF7 breast) was over 100 µM. For the same molecule, the TGI (MDA-MB-231 breast) was 41.2 µM, the TGI (MDA-MB-435) was over 100 µM and the TGI (MDA-N) was over 100 µM. It also gave a TGI (MOLT-4 leukemia) of 38.6 µM, a TGI (NCI-H226 lung) of 43.4 µM and a TGI (NCI-H23 lung) of 49.5 µM. It also gave a TGI (NCI-H460 lung) of over 100 µM, a TGI (NCI-H522 lung) of 56.6 µM and a TGI (NCI/ADR-RES ovarian) of 69.7 µM. For the same molecule, the TGI (OVCAR-3 ovarian) was 66.5 µM, the TGI (OVCAR-4 ovarian) was over 100 µM and the TGI (OVCAR-5 ovarian) was over 100 µM. The TGI (OVCAR-8 ovarian) was over 100 µM, the TGI (PC-3 prostate) was 63.8 µM and the TGI (RPMI-8226 leukemia) was 41.6 µM. It also gave a TGI (RXF 393 renal) of 59.1 µM, a TGI (SF-268 CNS) of over 100 µM and a TGI (SF-295 CNS) of 98.1 µM. The TGI (SK-MEL-2 melanoma) was 38.7 µM, the TGI (SK-MEL-5 melanoma) was 44.4 µM and the TGI (SK-OV-3 ovarian) was 69.1 µM. The TGI (SN12C renal) was 82.3 µM, the TGI (SNB-19 CNS) was over 100 µM and the TGI (SNB-75 CNS) was 67.1 µM. It also gave a TGI (SR leukemia) of 34.3 µM, a TGI (SW-620 colon) of over 100 µM and a TGI (T-47D breast) of 97.4 µM. For the same molecule, the TGI (TK-10 renal) was over 100 µM, the TGI (U251 CNS) was 72.5 µM and the TGI (UACC-257 melanoma) was over 100 µM. The TGI (UACC-62 melanoma) was over 100 µM and the TGI (UO-31 renal) was 51.1 µM.
